Measurements: publication PMC11714206, “Massively Parallel Screening of Toll/Interleukin‐1 Receptor (TIR)‐Derived Peptides Reveals Multiple Toll‐Like Receptors (TLRs)‐Targeting Immunomodulatory Peptides” (Advanced Science, 2024)

Target: T1, MAL^TIR (Homo sapiens, UniProt P58753)
T1 construct: MAL (residues 79–221); 6xHis; made in house; host or cells: E. coli BL21 (DE3)
Test: T‐Surf phage library (P8 and P3) selection against MAL^TIR, four rounds, NGS read counts
Format: binding
Settings: for P8_MAL Rank (after) / P8_MAL Rank (before): P8 library; for P3_MAL Rank (after) / P3_MAL Rank (before): P3 library; for Population: 4th round of selection against MAL TIR, share of NGS reads
In short: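 Read counts come from NGS of phage pools enriched over four selection rounds on the plate‐coated TIR domain (5 µg mL^−1). Each round: 1 h phage binding at room temperature after 0.2% BSA blocking, Tween washes, acid elution, amplification in E. coli TG1 with M13KO7 helper.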

[1] = P3_MAL: rank by count after grouping
[2] = P3_MAL: rank by count before grouping
[3] = selection against MAL, rank after grouping
[4] = selection against MAL, rank before grouping
[5] = selection against MAL, rank by count after grouping
[6] = selection against MAL, rank by count before grouping
[7] = selection against MAL TIR, rank by count after grouping
[8] = selection against MAL TIR, rank by count before grouping
[9] = P8_MAL: rank by count after grouping
[10] = P8_MAL: rank by count before grouping
[11] = 4R selection against MAL, rank after grouping
[12] = 4R selection against MAL, rank before grouping
[13] = P3_MAL pool: P3 T-Surf phage library
[14] = P8_MAL pool: P8 T-Surf phage library

T1 sequence (P58753 79-221): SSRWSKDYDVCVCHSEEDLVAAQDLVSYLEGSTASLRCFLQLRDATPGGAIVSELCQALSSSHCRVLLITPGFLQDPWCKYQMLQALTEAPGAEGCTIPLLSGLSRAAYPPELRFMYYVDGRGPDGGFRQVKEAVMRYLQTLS

In the case of HHNSSYGEALAEHEKR, the “Rank (after)” value [1] was 167 and the “Rank (before)” value [2] was 2817.
With WFYERLVSLILRVTKI the “P8_MAL Rank (after)” value [3] was 553 and the “P8_MAL Rank (before)” value [4] was 1199.
In the case of HQAFWKRPWAKLKPPT, the “Rank (after)” value [1] was 472 and the “Rank (before)” value [2] was 2884.
In the case of YNFISHLYDALHQFHSWV, the “Rank (after)” value [1] was 150 and the “Rank (before)” value [2] was 523.
In the case of YAFPFHLFSCPELRGV, the “P3_MAL Rank (after)” value [5] was 742 and the “P3_MAL Rank (before)” value [6] was 1345.
With YFLHFLLFRRPENAYM the “P8_MAL Rank (after)” value [7] was 268 and the “P8_MAL Rank (before)” value [8] was 1461.
For NHWRNALTAAANLIGW, the “P8_MAL Rank (after)” value [7] was 248 and the “P8_MAL Rank (before)” value [8] was 2657.
For PNLRTKLLNYLMHTKT, the “P3_MAL Rank (after)” value [7] was 247 and the “P3_MAL Rank (before)” value [8] was 2742.
WFYECLVSLILRVTKV was tested, and the “P8_MAL Rank (after)” value [7] was 217 and the “P8_MAL Rank (before)” value [8] was 1145.
In the case of WFLFTVRSAIYSISRA, the “P8_MAL Rank (after)” value [5] was 692 and the “P8_MAL Rank (before)” value [6] was 1346.
RAFVAHLYEALKKRAN was tested, and the “P3_MAL Rank (after)” value [3] was 547 and the “P3_MAL Rank (before)” value [4] was 2451.
For AFLYTFDQSDPSDQF, the “P8_MAL Rank (after)” value [3] was 509 and the “P8_MAL Rank (before)” value [4] was 1822.
In the case of AFLFTFLINLTHPSNF, the “Rank (after)” value [9] was 450 and the “Rank (before)” value [10] was 1803.
AFFWEQLRTVLRTPTL was tested, and the “P8_MAL Rank (after)” value [11] was 613 and the “P8_MAL Rank (before)” value [12] was 1676.
For KWFWDKLIYALSRIR, the “P3_MAL Rank (after)” value [3] was 545 and the “P3_MAL Rank (before)” value [4] was 3495.
In the case of SLLYDYLRCLGIRAIL, the “Rank (after)” value [9] was 475 and the “Rank (before)” value [10] was 2493.
With RNLLAYLRWAVANTVI the “P8_MAL Rank (after)” value [3] was 541 and the “P8_MAL Rank (before)” value [4] was 2312.
For RLLNWKEALHQFHSWV, the Population [13] was 0.00338%.
In the case of AFLWAYLNSVTHPPTF, the “Rank (after)” value [9] was 471 and the “Rank (before)” value [10] was 1796.
With AFFWEQLRTVLGKPSI the “P8_MAL Rank (after)” value [7] was 194 and the “P8_MAL Rank (before)” value [8] was 1684.
YAFTGHLHSYLVQRGV gave a Population [13] of 0.00338%.
In the case of NQWRNALTAPANLSGR, the “P3_MAL Rank (after)” value [7] was 228 and the “P3_MAL Rank (before)” value [8] was 3389.
In the case of MSHLYQGLKNRGIFT, the “Rank (after)” value [1] was 117 and the “Rank (before)” value [2] was 254.
With DWFLSKLSQHLLKRAK the “P3_MAL Rank (after)” value [5] was 682 and the “P3_MAL Rank (before)” value [6] was 1882.
YALPAICIVIWCSVA was tested, and the “Rank (after)” value [1] was 138 and the “Rank (before)” value [2] was 516.
In the case of TFLGHLSNGLVQAGIH, the “Rank (after)” value [9] was 478 and the “Rank (before)” value [10] was 2556.
WFYERRVSLILLLTIV was tested, and the “P8_MAL Rank (after)” value [5] was 684 and the “P8_MAL Rank (before)” value [6] was 1253.
AFFWEQLRTVLRKPTT was tested, and the “P8_MAL Rank (after)” value [11] was 631 and the “P8_MAL Rank (before)” value [12] was 1693.
For KLFQQWIELHLHQLHL, the “Rank (after)” value [9] was 436 and the “Rank (before)” value [10] was 2724.
RNFWRIFFRRWPIKG was tested, and the “P8_MAL Rank (after)” value [5] was 714 and the “P8_MAL Rank (before)” value [6] was 2184.
In the case of ESIIYQLHRSSERVAN, the “P3_MAL Rank (after)” value [3] was 501 and the “P3_MAL Rank (before)” value [4] was 2075.
In the case of RFMMKFRTELDRGNGG, the “P8_MAL Rank (after)” value [3] was 489 and the “P8_MAL Rank (before)” value [4] was 2304.
In the case of AFLYTFLINLAHPTNF, the Population [14] was 0.00278%.
With PNLRTTVLKYLIRTKT the “Rank (after)” value [1] was 446 and the “Rank (before)” value [2] was 2749.
With RSFRDGLWRLLELSKK the “Rank (after)” value [1] was 160 and the “Rank (before)” value [2] was 3232.
For LKAERWRQALEKAGKL, the “P3_MAL Rank (after)” value [7] was 226 and the “P3_MAL Rank (before)” value [8] was 2304.
With VEPTQVRTQSGAAENA the “P3_MAL Rank (after)” value [5] was 753 and the “P3_MAL Rank (before)” value [6] was 1651.
For KSILDTEARIWGWLFA, the “P3_MAL Rank (after)” value [7] was 248 and the “P3_MAL Rank (before)” value [8] was 3718.
WFYERLVNLILRDTIV was tested, and the “P8_MAL Rank (after)” value [11] was 668 and the “P8_MAL Rank (before)” value [12] was 1241.
In the case of VELAQVRKQRDAGEKV, the “Rank (after)” value [1] was 412 and the “Rank (before)” value [2] was 1644.
In the case of LFWELLRQALGSRNRL, the “P8_MAL Rank (after)” value [3] was 488 and the “P8_MAL Rank (before)” value [4] was 2152.
For YAFTGHLHRYLVQRSGI, the “P3_MAL Rank (after)” value [7] was 203 and the “P3_MAL Rank (before)” value [8] was 733.
For GGFLSHLFDAFSVSR, the “P3_MAL Rank (after)” value [5] was 749 and the “P3_MAL Rank (before)” value [6] was 1758.
For HLLDKLRSNGISPFID, the “Rank (after)” value [1] was 461 and the “Rank (before)” value [2] was 2772.
In the case of AFCIRRLRVKALRFS, the “P3_MAL Rank (after)” value [3] was 569 and the “P3_MAL Rank (before)” value [4] was 1783.
With SLCKNLVTNLIEEFNR the “Rank (after)” value [1] was 456 and the “Rank (before)” value [2] was 3062.
With WFYERLGSLMLRDTNV the “P8_MAL Rank (after)” value [3] was 555 and the “P8_MAL Rank (before)” value [4] was 1247.
In the case of WFYERLLNLILRDTKV, the “Rank (after)” value [9] was 96 and the “Rank (before)” value [10] was 1250.
WFYGRLVSLILRDTKV showed a Population [14] of 0.0034%.
In the case of LQNQWKLALTAAANLSGW, the “P3_MAL Rank (after)” value [11] was 629 and the “P3_MAL Rank (before)” value [12] was 2147.
With RGFLSHLSHPLQAKDP the “P3_MAL Rank (after)” value [11] was 585 and the “P3_MAL Rank (before)” value [12] was 2391.
WFMMKFRTVLGKPTM was tested, and the “P8_MAL Rank (after)” value [7] was 216 and the “P8_MAL Rank (before)” value [8] was 760.
With YAFTGHVPGYLVQRGV the “P3_MAL Rank (after)” value [5] was 757 and the “P3_MAL Rank (before)” value [6] was 1361.
With RGFLSHLRHHLQEQDH the “P3_MAL Rank (after)” value [7] was 256 and the “P3_MAL Rank (before)” value [8] was 2378.
YFLHFLLFSRPQTQYI was tested, and the “Rank (after)” value [9] was 137 and the “Rank (before)” value [10] was 1458.
In the case of KEVEGWRDALTQAAN, the “P3_MAL Rank (after)” value [11] was 599 and the “P3_MAL Rank (before)” value [12] was 3565.
For AFLYTFLINLTPPTEY, the “Rank (after)” value [9] was 401 and the “Rank (before)” value [10] was 1858.
In the case of AFLYTFMINLTHPTTF, the “Rank (after)” value [9] was 126 and the “Rank (before)” value [10] was 1889.
SSFREGLWRLPELSKK was tested, and the Population [13] was 0.00413%.
For VEQTQVRKPSGAVENA, the “P3_MAL Rank (after)” value [11] was 627 and the “P3_MAL Rank (before)” value [12] was 1687.
For HHKAAMAKRWRNMKN, the “Rank (after)” value [1] was 401 and the “Rank (before)” value [2] was 2818.
In the case of HLLKWKEALHQFHSWV, the Population [13] was 0.00488%.
For YFLHFLLFSLPATEYI, the “P8_MAL Rank (after)” value [11] was 663 and the “P8_MAL Rank (before)” value [12] was 1473.
AFFWAQLKSVLGNPTL showed a Population [14] of 0.00309%.
WFYERLVRLILSDTKV was tested, and the “P8_MAL Rank (after)” value [3] was 549 and the “P8_MAL Rank (before)” value [4] was 1175.
With LFFWDSLKHLLRCDGC the “P8_MAL Rank (after)” value [11] was 593 and the “P8_MAL Rank (before)” value [12] was 2068.
In the case of FAFTGQMLRYMVRSGL, the “P3_MAL Rank (after)” value [5] was 717 and the “P3_MAL Rank (before)” value [6] was 1132.
In the case of TFLGPLLNALVQAGIH, the “Rank (after)” value [9] was 388 and the “Rank (before)” value [10] was 2536.
In the case of WFYERMVSLILRDTKL, the “Rank (after)” value [9] was 136 and the “Rank (before)” value [10] was 1262.
With HFFWIQLKNILGENSF the “P8_MAL Rank (after)” value [11] was 610 and the “P8_MAL Rank (before)” value [12] was 2417.
In the case of AFLNTLLKNLTRPPNF, the “P8_MAL Rank (after)” value [3] was 562 and the “P8_MAL Rank (before)” value [4] was 1912.
With SLRKNLLSNLIEECKR the “P3_MAL Rank (after)” value [3] was 495 and the “P3_MAL Rank (before)” value [4] was 3097.
With SKDYAQSAWALAEHEKR the “P3_MAL Rank (after)” value [11] was 603 and the “P3_MAL Rank (before)” value [12] was 3225.
With WFYERLVSLILRVTKV the Population [14] was 0.00309%.
With NQWRNALSSIASRP the “P3_MAL Rank (after)” value [11] was 625 and the “P3_MAL Rank (before)” value [12] was 3351.
With YAFTSHLYDRLPAPQH the “P3_MAL Rank (after)” value [3] was 554 and the “P3_MAL Rank (before)” value [4] was 1469.
With AFFWEKLRTVLGRPTM the “Rank (after)” value [9] was 477 and the “Rank (before)” value [10] was 1713.
For VEPTQGRKQLGAVENA, the “P3_MAL Rank (after)” value [3] was 573 and the “P3_MAL Rank (before)” value [4] was 1683.
In the case of GSIKWRDQHTVHPQSS, the “P3_MAL Rank (after)” value [11] was 589 and the “P3_MAL Rank (before)” value [12] was 1776.
Work on YAFTSHLHRYLVQRGV yielded a Population [13] of 0.00827%.
In the case of LKAESWRQAPEKAGKL, the “P3_MAL Rank (after)” value [7] was 259 and the “P3_MAL Rank (before)” value [8] was 2306.
With DLFLSKLSQHLLKREK the “Rank (after)” value [1] was 455 and the “Rank (before)” value [2] was 1861.
